Common to all, as to assay type: cell-based
One assay relates to PCresistant S. aureus. Kind of assay: MIC by two-fold serial agar dilution in Mueller-Hinton agar, Gp-Ib. To be noted: for MIC: Staphylococcus aureus, read-out: Geometric Mean of MIC. The method, then:
(§1) In the primary evaluation of the compounds of this invention, the Minimum Inhibitory Concentrations (MIC's) of the compounds were determined by the two-fold serial agar dilution method in Mueller-Hinton agar against 32 strains of test organisms in six groups.
GpIb: PCresistant S. aureus
Background: Agar dilution tests growth on a series of plates holding different concentrations.

Assay [1] deals with CETresistant E. coli (3) and K. pneumoniae (2). As to the kind of experiment: MIC by two-fold serial agar dilution in Mueller-Hinton agar, Gn-Ib. The settings on record: for MIC: Escherichia coli, read-out: Geometric Mean of MIC. The method, then: as §1
GnIb: CETresistant E. coli (3) and K. pneumoniae (2)

Assay [2] relates to M. morganii (1), E. cloacae (2) and S. marcescens (2). Kind of assay: MIC by two-fold serial agar dilution in Mueller-Hinton agar, Gn-II. The settings on record: for MIC: read-out: Geometric Mean of MIC. The method, then: as §1
GnII: M. morganii (1), E. cloacae (2) and S. marcescens (2)

Assay [3] relates to Cephalothin(CET)sensitive E. coli (2 strains), K. pneumoniae (1) and P. mirabilis (2). Kind of assay: MIC by two-fold serial agar dilution in Mueller-Hinton agar, Gn-Ia. The settings on record: for MIC: read-out: Geometric Mean of MIC. The method, then:
as §1
GnIa: Cephalothin(CET)sensitive E. coli (2 strains), K. pneumoniae (1) an […]

The subject of a further assay is P. aeruginosa. As to the kind of experiment: MIC by two-fold serial agar dilution in Mueller-Hinton agar, Gn-III. To be noted: Gn-III, 7 strains, P. aeruginosa; for MIC: Pseudomonas aeruginosa, read-out: Geometric Mean of MIC. The method, then:
as §1

The subject of assay [4] is Penicillin(PC)sensitive S. aureus. As to the kind of experiment: MIC by two-fold serial agar dilution in Mueller-Hinton agar, Gp-Ia. To be noted: for MIC: Staphylococcus aureus. The method, then: as §1
Gp-Ia: Penicillin(PC)sensitive S. aureus

Where [5] appears, read: Gp-Ib, 5 strains, PC-resistant S. aureus.
Setting [6] is: Gn-Ib, 5 strains, CET-resistant.
Setting [7] is: Gn-Ia, 5 strains, CET-sensitive.
[8] abbreviates: Gp-Ia, 5 strains, PC-sensitive S. aureus, read-out: Geometric Mean of MIC.
Where [9] appears, read: read-out: Geometric Mean of MIC, Gp-Ia, 5 strains, PC-sensitive S. aureus.
Where [10] appears, read: Gp-Ia, 5 strains, PC-sensitive S. aureus.

This is an account of results in patent US4525473A, “Cephalosporins” (Bristol-Myers Company, priority 1983, dated 1985).

In brackets after ≈: the same amount, converted by molar mass. Where two headings read alike, the source gives them in different places.

`CO/N=C(\C(=O)NC1C(=O)N2C(C(=O)[O-])=C(C[N+]3(C)CCSCC3)CS[C@H]12)c1csc(N)n1` (stereo partly drawn) [Example 20, 7-[(Z)-2-(2-Aminothiazol-4-yl)-2-methoxyiminoacetamido]-3-(4-methylthiomorpholinio)methyl-3-cephem-4-carboxylate]: the MIC (commonly the lowest concentration that inhibits growth of the organism) in the assay on PCresistant S. aureus (setting [5]) was found to be 4.1 µg/mL (≈ 8 µM); in assay [1] (setting [6]), 0.25 µg/mL (≈ 0.488 µM); in assay [2] (Gn-II, 5 strains) it was 0.25 µg/mL (≈ 0.488 µM); in assay [3] (setting [7]), 0.064 µg/mL (≈ 0.125 µM); in the assay with P. aeruginosa, 3.7 µg/mL (≈ 7.22 µM); in assay [4] (setting [8]), 1.2 µg/mL (≈ 2.34 µM).
With `CO/N=C(\C(=O)NC1C(=O)N2C(C(=O)[O-])=C(C[N+]3(C)CCc4nc(N)sc4C3)CSC12)c1csc(N)n1` (stereo not drawn) [Example 15, 7-[(Z)-2-(2-Aminothiazol-4-yl)-2-methoxyiminoacetamido]-3-[(2-amino-4,5,7-tetrahydro-6-methyl-6-thiazolo[5,4-c]pyridinio)methyl]-3-cephem-4-carboxylate], the MIC is 2.8 µg/mL (≈ 4.96 µM) in the assay on PCresistant S. aureus (setting [5]); 0.16 µg/mL (≈ 0.283 µM) in assay [1]; 0.18 µg/mL (≈ 0.319 µM) in assay [2] (Gn-II, 5 strains); 0.034 µg/mL (≈ 0.0602 µM) in assay [3] (setting [7]); 4.6 µg/mL (≈ 8.15 µM) in the assay on P. aeruginosa; 1.1 µg/mL (≈ 1.95 µM) in assay [4] (setting [9]).
As for `CO/N=C(\C(=O)NC1C(=O)N2C(C(=O)[O-])=C(C[N+]3(C)CCC[C@H]3C(N)=O)CSC12)c1csc(N)n1` (single isomer, unassigned) [8 Isomer B], the “Geometric Mean of MIC” value came out at 4.1 µg/mL in the assay with PCresistant S. aureus (setting [5]), 0.057 µg/mL in assay [3] (setting [7]), 7.2 µg/mL with P. aeruginosa and 1.6 µg/mL in assay [4] (setting [10]). Further, the MIC in assay [1] worked out at 0.2 µg/mL (≈ 0.382 µM); in assay [2] it was 0.23 µg/mL (≈ 0.439 µM).
Turning to `CO/N=C(\C(=O)NC1C(=O)N2C(C(=O)[O-])=C(C[N+]3(C)CCOC3)CSC12)c1csc(N)n1` (single isomer, unassigned) [12 Isomer A], the minimum inhibitory concentration (MIC) was 4.4 µg/mL (≈ 9.12 µM) in the assay with PCresistant S. aureus (setting [5]); 0.25 µg/mL (≈ 0.518 µM) in assay [1] (setting [6]); 0.21 µg/mL (≈ 0.435 µM) in assay [2] (Gn-II, 5 strains); 0.046 µg/mL (≈ 0.0953 µM) in assay [3] (setting [7]); 5.4 µg/mL (≈ 11.2 µM) in the assay with P. aeruginosa; 1.1 µg/mL (≈ 2.28 µM) in assay [4] (setting [9]).
As for `CO/N=C(\C(=O)NC1C(=O)N2C(C(=O)[O-])=C(C[N+]34CCC(CC3)CC4)CS[C@H]12)c1csc(N)n1` (stereo partly drawn) [Example 3, 7-[(Z)-2-(2-Aminothiazol-4-yl)-2-methoxyiminoacetamido]-3-(1-quinuclidinio)methyl-3-cephem-4-carboxylate], the MIC was 2.5 µg/mL (≈ 4.93 µM) in the assay with PCresistant S. aureus; 0.14 µg/mL (≈ 0.276 µM) in assay [1] (setting [6]); 0.84 µg/mL (≈ 1.66 µM) in assay [2] (Gn-II, 5 strains); 0.04 µg/mL (≈ 0.079 µM) in assay [3]; 2.8 µg/mL (≈ 5.53 µM) in the assay with P. aeruginosa; 0.77 µg/mL (≈ 1.52 µM) in assay [4] (setting [8]).
As for `CO/N=C(\C(=O)NC1C(=O)N2C(C(=O)[O-])=C(C[N+]3(C)CCC(O)C3)CS[C@H]12)c1csc(N)n1` (stereo partly drawn) [Example 9, 7-[(Z)-2-(2-Aminothiazol-4-yl)-2-methoxyiminoacetamido]-3-(3-hydroxy-1-methylpyrrolidinio)methyl-3-cephem-4-carboxylate], the MIC came out at 3.3 µg/mL (≈ 6.65 µM) with PCresistant S. aureus (setting [5]); 0.14 µg/mL (≈ 0.282 µM) in assay [1]; 0.14 µg/mL (≈ 0.282 µM) in assay [2]; 0.27 µg/mL (≈ 0.544 µM) in assay [3] (setting [7]); 2.9 µg/mL (≈ 5.84 µM) in the assay with P. aeruginosa; 1.3 µg/mL (≈ 2.62 µM) in assay [4] (setting [9]).
As for `CO/N=C(\C(=O)NC1C(=O)N2C(C(=O)[O-])=C(C[N+]3(C)CCc4scnc4C3)CS[C@H]12)c1csc(N)n1` (stereo partly drawn) [Example 6, 7-[(Z)-2-(2-Aminothiazol-4-yl)-2-methoxyiminoacetamido]-3-(5-methyl-4,5,6,7-tetrahydro-5-thiazolo[4,5-c]pyridinio)methyl-3-cephem-4-carboxylate], the MIC in the assay with PCresistant S. aureus (setting [5]) was 3.2 µg/mL (≈ 5.82 µM); in assay [1] it was 0.15 µg/mL (≈ 0.273 µM); in assay [2], 0.4 µg/mL (≈ 0.728 µM); in assay [3], 0.025 µg/mL (≈ 0.0455 µM); with P. aeruginosa, 4.2 µg/mL (≈ 7.64 µM); in assay [4] (setting [8]), 0.9 µg/mL (≈ 1.64 µM).
Consider `CO/N=C(\C(=O)NC1C(=O)N2C(C(=O)[O-])=C(C[N+]3(C)CCCCCC3)CS[C@H]12)c1csc(N)n1` (stereo partly drawn) [Example 7, 7-[(Z)-2-(2-Aminothiazol-4-yl)-2-methoxyiminoacetamido]-3-(1-methylhexahydroazepinio)methyl-3-cephem-4-carboxylate], for which the minimal inhibitory concentration (MIC) worked out at 3.2 µg/mL (≈ 6.29 µM) with PCresistant S. aureus (setting [5]); 0.13 µg/mL (≈ 0.256 µM) in assay [1] (setting [6]); 0.15 µg/mL (≈ 0.295 µM) in assay [2] (Gn-II, 5 strains); 0.05 µg/mL (≈ 0.0983 µM) in assay [3] (setting [7]); 4.2 µg/mL (≈ 8.26 µM) with P. aeruginosa; 0.9 µg/mL (≈ 1.77 µM) in assay [4] (setting [8]).
In the case of `CO/N=C(\C(=O)NC1C(=O)N2C(C(=O)[O-])=C(C[N+]3(CCO)CCCC3)CSC12)c1csc(N)n1` (stereo not drawn) [Example 17], the MIC turned out to be 4.1 µg/mL (≈ 8.03 µM) with PCresistant S. aureus (setting [5]); 0.15 µg/mL (≈ 0.294 µM) in assay [1]; 0.2 µg/mL (≈ 0.392 µM) in assay [2]; 0.057 µg/mL (≈ 0.112 µM) in assay [3] (setting [7]); 4.1 µg/mL (≈ 8.03 µM) with P. aeruginosa; 1.6 µg/mL (≈ 3.13 µM) in assay [4] (setting [8]).
In the case of `CO/N=C(\C(=O)NC1C(=O)N2C(C(=O)[O-])=C(C[N+]3(C)CCOCC3)CS[C@H]12)c1csc(N)n1` (stereo partly drawn) [Example 2, 7-[(Z)-2-(2-Aminothiazol-4-yl)-2-methoxyiminoacetamido]-3-(4-methyl-4-morpholinio)methyl-3-cephem-4-carboxylate], the MIC in the assay with PCresistant S. aureus (setting [5]) stood at 5 µg/mL (≈ 10.1 µM); in assay [1], 0.22 µg/mL (≈ 0.443 µM); in assay [2] (Gn-II, 5 strains) it was 0.96 µg/mL (≈ 1.93 µM); in assay [3] (setting [7]), 0.061 µg/mL (≈ 0.123 µM); in the assay with P. aeruginosa, 4 µg/mL (≈ 8.06 µM); in assay [4] (setting [8]), 1.7 µg/mL (≈ 3.42 µM).
Take `C=CC[N+]1(CC2=C(C(=O)[O-])N3C(=O)C(NC(=O)/C(=N\OC)c4csc(N)n4)[C@H]3SC2)CCCC1` (stereo partly drawn) [Example 21, 7-[(Z)-2-(2-Aminothiazol-4-yl)-2-methoxyiminoacetamido]-3-(N-allylpyrrolidinio)methyl-3-cephem-4-carboxylate]: the MIC with PCresistant S. aureus (setting [5]) came to 2.9 µg/mL (≈ 5.72 µM); in assay [1], 0.15 µg/mL (≈ 0.296 µM); in assay [2] (Gn-II, 5 strains) it was 0.18 µg/mL (≈ 0.355 µM); in assay [3] (setting [7]), 0.045 µg/mL (≈ 0.0888 µM); in the assay with P. aeruginosa it was 6.5 µg/mL (≈ 12.8 µM); in assay [4] (setting [9]) it was 1.1 µg/mL (≈ 2.17 µM).
For the compound `CO/N=C(\C(=O)NC1C(=O)N2C(C(=O)[O-])=C(C[N+]3(C)CCC[C@H]3C(N)=O)CSC12)c1csc(N)n1` (single isomer, unassigned) [8 Isomer A], the MIC with PCresistant S. aureus (setting [5]) is 4.7 µg/mL (≈ 8.98 µM); in assay [1] (setting [6]), 0.39 µg/mL (≈ 0.745 µM); in assay [2] (Gn-II, 5 strains) it was 0.35 µg/mL (≈ 0.668 µM); in assay [3] (setting [7]), 0.098 µg/mL (≈ 0.187 µM); with P. aeruginosa, 11 µg/mL (≈ 21 µM); in assay [4] (setting [8]) it was 2.1 µg/mL (≈ 4.01 µM).
Turning to `CC[N+]1(CC2=C(C(=O)[O-])N3C(=O)C(NC(=O)/C(=N\OC)c4csc(N)n4)[C@H]3SC2)CCCC1` (stereo partly drawn) [Example 10, 7-[(Z)-2-(2-Aminothiazol-4-yl)-2-methoxyiminoacetamido]-3-(1-ethylpyrrolidinio)methyl-3-cephem-4-carboxylate], the MIC in the assay on PCresistant S. aureus stood at 2 µg/mL (≈ 4.04 µM); in assay [1] (setting [6]) it was 0.13 µg/mL (≈ 0.263 µM); in assay [2] (Gn-II, 5 strains), 0.13 µg/mL (≈ 0.263 µM); in assay [3], 0.037 µg/mL (≈ 0.0748 µM); in the assay with P. aeruginosa it was 3.1 µg/mL (≈ 6.27 µM); in assay [4] (setting [9]) it was 1 µg/mL (≈ 2.02 µM).
With “7-[(Z)-2-(2-Aminothiazol-4-yl)-2-methoxyiminoacetamido]-3-[(6-methyl-5,6,7,8-tetrahydro-6-[1,6]naphthylidinio)methyl]-3-cephem-4-carboxylate [Example 23]”, the “Geometric Mean of MIC” value with PCresistant S. aureus (setting [5]) worked out at 2.9 µg/mL; in assay [1] (setting [6]) it was 0.28 µg/mL; in assay [2] (Gn-II, 5 strains) it was 0.96 µg/mL; in assay [3] (setting [7]), 0.070 µg/mL; in the assay on P. aeruginosa, 6.3 µg/mL; in assay [4] (setting [10]), 1.4 µg/mL.
